{"source": "paper PMC9343791", "about": "“Evaluation of Herb–Drug Interaction Between Danshen and Rivaroxaban in Rat and Human Liver Microsomes” (Frontiers in Pharmacology, 2022)", "key": {"CYP2J3": {"target": "T1, CYP2J3 (Rattus norvegicus, UniProt P51590)", "T1 sequence (P51590 1-502)": "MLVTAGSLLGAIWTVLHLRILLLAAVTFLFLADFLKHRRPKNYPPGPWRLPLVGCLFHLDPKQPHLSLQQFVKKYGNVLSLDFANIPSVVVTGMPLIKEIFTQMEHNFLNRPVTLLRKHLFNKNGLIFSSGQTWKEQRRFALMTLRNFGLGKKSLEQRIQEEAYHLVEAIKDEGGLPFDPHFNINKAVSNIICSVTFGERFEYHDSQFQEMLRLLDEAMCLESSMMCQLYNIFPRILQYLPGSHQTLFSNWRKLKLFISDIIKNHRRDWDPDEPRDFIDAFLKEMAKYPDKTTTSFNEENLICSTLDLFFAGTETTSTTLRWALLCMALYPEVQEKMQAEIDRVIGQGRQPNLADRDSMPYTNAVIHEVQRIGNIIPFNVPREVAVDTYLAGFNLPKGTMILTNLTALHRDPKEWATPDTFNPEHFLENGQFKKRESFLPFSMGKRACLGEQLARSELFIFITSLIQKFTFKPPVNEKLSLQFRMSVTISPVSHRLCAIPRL", "assay": "astemizole probe-substrate inhibition in pooled rat liver microsomes, LC-MS/MS", "format": "biochemical"}, "CYP3A2": {"target": "T2, CYP3A2 (Rattus norvegicus, UniProt P05183)", "T2 sequence (P05183 1-504)": "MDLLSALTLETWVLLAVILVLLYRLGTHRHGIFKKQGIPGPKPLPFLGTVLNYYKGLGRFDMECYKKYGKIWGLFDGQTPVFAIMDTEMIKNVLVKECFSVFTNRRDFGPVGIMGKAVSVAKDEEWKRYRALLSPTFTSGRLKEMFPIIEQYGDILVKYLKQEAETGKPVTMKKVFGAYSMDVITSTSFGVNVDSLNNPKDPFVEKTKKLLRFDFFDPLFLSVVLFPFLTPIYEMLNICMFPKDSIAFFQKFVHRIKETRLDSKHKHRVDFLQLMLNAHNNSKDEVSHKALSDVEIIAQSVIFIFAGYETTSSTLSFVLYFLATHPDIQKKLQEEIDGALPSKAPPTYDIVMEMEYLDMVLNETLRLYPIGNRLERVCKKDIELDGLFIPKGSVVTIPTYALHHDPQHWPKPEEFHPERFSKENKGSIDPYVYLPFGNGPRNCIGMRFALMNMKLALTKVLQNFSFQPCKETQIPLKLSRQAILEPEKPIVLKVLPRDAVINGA", "assay": "midazolam probe-substrate inhibition in pooled rat liver microsomes, LC-MS/MS", "format": "biochemical"}}, "data": [{"smiles": "Cc1cccc2c3c(ccc12)C1=C(C(=O)C3=O)[C@@H](C)CO1", "note": "[dihydrotanshinone I]", "values": [{"measurement": "IC50", "setting": "CYP2J3", "value": 6.39, "unit": "µM"}, {"measurement": "IC50", "setting": "CYP3A2", "value": 13.8, "unit": "µM"}]}]}
